# Read-outs that look alike come from different tables or passages of the source.
# What was measured:
# TB = test: MIC of control anti-tuberculosis antibiotics; type: cell-based, M. tuberculosis; settings: Mycobacterium tuberculosis
# [1] = test system: carbon-starved M. tuberculosis H37Rv; test: Non-replicating IC90 determination by luciferase (carbon-starved cells); type: cell-based; settings: FIG. 1C; read-out: IC90 for non-replicating starved cells by luciferase assay
# [2] = test system: replicating M. tuberculosis H37Rv; type: cell-based; settings: FIG. 1A; read-out: IC90 against replicating, logarithmically growing bacteria measured by OD600 (converted)
# [3] = test system: carbon-starved M. tuberculosis H37Rv; test: microbe, parasite or virus in culture; type: cell-based
# [4] = test system: replicating M. tuberculosis H37Rv; test: microbe, parasite or virus in culture; type: cell-based
compound,measurement,setting,value
CO[C@H]1/C=C/O[C@@]2(C)Oc3c(C)c(O)c4c(O)c(c(/C=N/N5CCN(C)CC5)c(O)c4c3C2=O)NC(=O)/C(C)=C\C=C\[C@H](C)[C@H](O)[C@@H](C)[C@@H](O)[C@@H](C)[C@H](OC(C)=O)[C@@H]1C [rifampin],MIC,TB,0.01 µg/mL
"NNC(=O)c1ccncc1 [INH, isoniazid]",MIC,TB,0.1 µg/mL
Clc1ccc(-c2nnc(SCc3cn(-c4ccccc4)nn3)o2)cc1,IC90,[1],> 62 µM
same,IC90,[2],> 62 µM
same,IC90,"[3]; FIG. 1D, read-out: IC90 against non-replicating, starved cells by CFU/mL",1 µM
same,IC90,"[4]; FIG. 1B, read-out: IC90 against replicating, logarithmically growing bacteria measured by CFU/mL (converted)",> 62 µM
Brc1cccc(-c2nnc(SCc3ccccn3)o2)c1 [drawing 271],IC90,"[3]; Mycobacterium tuberculosis, H37RV, read-out: Against carbon starving non-replicating Mtb IC90",< 8 µM
same,"Against Replicating Mtb, % @ 62","[4]; […], at 62 uM",96% @ 62
COc1ccc(CSc2nnc(-c3ccc(Cl)cc3)o2)nc1 [drawing 275],"Against carbon starving non-replicating Mtb, % @ 4",[3],99% @ 4
same,"Against Replicating Mtb, % @ 16 (7 d)","[4]; […], at 16 uM, 7 d",99.5% @ 16 (7 d)

# Source: patent US10301294B2, “Compounds for the treatment of tuberculosis” (priority 2013, dated 2019)
